Legend:
Assay type in all cases: cell-based, Escherichia coli
[1] = tested on: tac promoter (GFP expression) in E. coli CL182; assay: GFP expression from the IPTG responsive tac promoter in adhered CL182; conditions: without IPTG versus with IPTG (0.2 μM) in Luria broth
Description: (§1) The strains were mixed and grown in the presence of selective antibiotics (tetracycline, ampicillin or chloramphenicol) and the effects were visualised using the IN Cell Analyzer.
(§2) E. coli cultures were grown in batch culture at 37° C. for 16 hours under selective pressure. Cells were pelleted by centrifugation, washed and resuspended in cold PBS. OD600 mn was normalised (to 1) for both cultures and solutions were diluted ten fold in cold PBS. Cells (100 μl) were allowed to settle and adhere to the surface of a Packard microtitre plate (Packard #6005182) at 4° C. for 1 hour. Adhered E. coli were washed twice with PBS (100 μl). Luria broth (100 μl) with or without IPTG (0.2 μM), and ampicillin (100 μg/ml), tetracycline (10 μg/ml) and chloramphenicol (34 μg/ml) were added to adhered cells and incubated at 37° C. for 4 hours and 16 hours. Cells were washed twice with PBS and incubated for 10 minutes in Hoechst 33342 (0.1 μM in PBS). Cells were washed in PBS and imaged sequentially using the UV (365 nm) and blue (488 nm) laser lines to excite Hoechst 33342 and GFP respectively. […]
(§3) The images were then analysed using the algorithms described in FIGS. 7 to 14. […] In addition, the overlap between green and blue fluorescent biofilm was calculated in 3D.

XL1-blue and CL182 cells = assay: Differential 3D analysis of mixed adhered E. coli cultures grown with selective antibiotics; conditions: for inhibition of biofilm development: summary statement referring to FIGS. 17 and 18
Description: as §1
E. coli cultures were grown in batch culture at 37° C. for 16 hours under selective pressure. Cells were pelleted by centrifugation, washed and resuspended in cold PBS. OD600 mn was normalised (to 1) for both cultures and solutions were diluted ten fold in cold PBS. Cells (100 μl) were allowed to settle and adhere to the surface of a Packard microtitre plate (Packard #6005182) at 4° C. for 1 hour. Adhered E. coli were washed twice with PBS (100 μl). Luria broth (100 μl) with or without IPTG (0.2 μM), and ampicillin (100 μg/ml), tetracycline (10 μg/ml) and chloramphenicol (34 μg/ml) were added to adhered cells and incubated at 37° C. for 4 hours and 16 hours. Cells were washed twice with PBS and incubated for 10 minutes in Hoechst 33342 (0.1 μM in PBS). Cells were washed in PBS and imaged sequentially using the UV (365 nm) and blue (488 nm) laser lines to excite Hoechst 33342 and GFP respectively. Emission light was captured using the 450BP65 and 565BP50 filters and collected as 12 bit images; 24 slices were acquired per condition with 1 μm spacing between them.
The images were then analysed using the algorithms described in FIGS. 7 to 14. The voxel dimensions were established prior to conducting the experiment using sub-resolution and super-resolution beads. The analysis thus provides data on the amount of biofilm in both colour planes in three dimensions as described previously. In addition, the overlap between green and blue fluorescent biofilm was calculated in 3D.

E. coli CL182 = assay: Differential 3D analysis of adhered E. coli cultures (confocal imaging, adhered culture volume); conditions: Luria broth, chloramphenicol 34 μg/ml, 37° C., 4 hours and 16 hours
Description: as §1, §2, §3

E. coli XL1-blue = assay: as above; conditions: Luria broth, chloramphenicol 34 μg/ml, 37° C., 4 hours and 16 hours
Description: as §1, §2, §3

Compound	reduction in the expression of GFP from the tac promoter by CL182 in the absence of IPTG [1]	differential inhibition of growth of XL1-blue and CL182 cells (XL1-blue and CL182 cells; ampicillin 100 μg/ml, tetracycline 10 μg/ml, 37° C., 4 hours and 16 hours, XL1-blue tetracycline resistant, CL182 ampicillin resistant)	inhibition of biofilm development (XL1-blue and CL182 cells)	inhibition of growth of CL182 (E. coli CL182)	inhibition of growth of XL1-blue (E. coli XL1-blue)
CC(C)S[C@@H]1O[C@H](CO)[C@H](O)[C@H](O)[C@H]1O [IPTG]	~25%				
CC1(C)S[C@@H]2[C@H](NC(=O)[C@H](N)c3ccccc3)C(=O)N2[C@H]1C(=O)O [ampicillin]		Differential inhibition	differentially inhibit		
O=C(N[C@H](CO)[C@H](O)c1ccc([N+](=O)[O-])cc1)C(Cl)Cl [chloramphenicol]			differentially inhibit	strongly inhibited	strongly inhibited

Reference: patent US20060275847A1, “Method for assessing biofilms” (priority 2002, published 2006)
